In data set [1] the test system is S. aureus MRSA (ATCC 43300). The data set can be described thus: MIC susceptibility testing. It is filed as cell-based. The note with it: Staphylococcus aureus; read-out: S. aureus MRSA (ATCC 43300) MIC. Put shortly: (§1)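 CLSI broth microdilution with two-fold compound dilutions, in triplicate; cells added in medium at 1×10^6 CFUs/mL, DMSO ≤0.5%. Media: MHB for S. aureus, CA-MHB for E. coli and E. faecium, CA-MHB plus 3% laked horse blood for S. pyogenes (5% CO2).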

Data set [2] deals with S. aureus VISA (ATCC 700699). The experiment in a line: MIC susceptibility testing. It is filed as cell-based. Particulars: Staphylococcus aureus; read-out: S. aureus VISA (ATCC 700699) MIC. In a few lines: as §1
The subject of data set [3] is S. aureus MSSA (ATCC 19636). The data set can be described thus: MIC susceptibility testing. It is filed as cell-based. Particulars: Staphylococcus aureus; read-out: S. aureus MSSA (ATCC 19636) MIC. Put shortly: as §1
The test system of data set [4] is S. pneumoniae (ATCC 49619). The experiment in a line: MIC susceptibility testing. It is filed as cell-based. Particulars: Streptococcus pneumoniae, ATCC49619, 18 h; medium with 3% laked horse blood; read-out: S. pneumoniae (ATCC 49619) MIC.
Data set [5] can be described thus: Murine pharmacokinetics studies (oral, dried blood spots). Particulars: 50 mg/kg single oral dose; for Cmax / AUC(0-t): mouse, whole blood (dried blood spots); for Cmax: po, 50 mg/kg, read-out: Mouse Oral PK DBS: Average Cmax; for AUC(0-t): read-out: Mouse Oral PK DBS: Average AUC(0-24 h) (converted). It is filed as in vivo, mice. How it is done:
Murine pharmacokinetics studies. The methods were performed as previously described. Briefly, test compounds were administered to mice by oral gavage (3 mice per compound) followed by tail blood sampling at intervals of 30, 60, 120, 240, 360, 480, and 1440 min. Blood samples were analyzed by extracting dried blood spots in acetonitrile for measurements of compound concentrations by liquid chromatography/tandem mass spectrometry.
Pharmacokinetics studies: Selected compounds were administered to mice in single oral doses at 50 mg/kg and tail blood was sampled at time intervals out to 24 h to assess blood exposure (Table 9).

Data set [6] has as its system S. aureus (ATCC 29213). The data set can be described thus: Neutropenic murine S. aureus thigh infection model. It is filed as in vivo, Staphylococcus aureus. The note with it: 75 mg/kg orally ×2; for reduction of bacterial load below stasis level: neutropenic mouse. The source says:
Murine thigh infection model. Animal studies were approved by the Institutional Animal Care and Use Committee at the University of Washington, Seattle. Female specific pathogen free CD1 mice were obtained from Charles River (Wilmington, Mass.) weighing 23-27 grams and allowed at least 3 days to acclimate prior to study. Mice had access to food and water ad libitum. Neutropenia was induced by administering cyclophosphamide monohydrate (Sigma Aldrich C7397; St. Louis, Mo.) via IP injection 4 days (at 150 mg/kg) and 1 day (at 100 mg/kg) prior to infection. Neutropenic status was confirmed by neutrophil count <100 cells/mm^3.
Overnight culture of S. aureus (ATCC strain 29213) was diluted 1:100 in MHB and incubated until reaching mid-log phase (OD600<0.750). The inoculum was prepared by pelleting log-phase culture and re-suspending in sterile dPBS. The culture was adjusted to OD600 of 0.200 and diluted 1:100 in sterile dPBS correlating to an inoculum of ˜5*10^5 CFU/50 μL. The mice were infected by an intramuscular injection of 50 μL in the right posterior thigh while under isoflurane gas anesthesia. At 1 h post infection, one vehicle group was sacrificed for determination of initial inoculum ([…] level of infection). Mice were dosed at 2 and 12 h post-infection with test compounds (below); they received a SC dose of 5 mg/kg ketoprofen at 2 h post-infection for pain management. Mice were sacrificed at 24 h post-infection; the thigh muscle was sterilely removed, weighed, homogenized in 5 mLs dPBS, serially diluted, plated on tryptic soy agar in duplicate, and incubated overnight at 37° C. Colonies were counted to quantify the bacterial load in CFUs per gram of thigh tissue.
Vancomycin was given at 100 mg/kg SC in 100 μL in a 0.9% saline solution. […] Test compounds were administered PO in 200 μL of vehicle containing 60% Phosal 53 MCT (Lipoid, Ludwigshafen Germany), 30% PEG400 (Sigma Aldrich, St. Louis, Mo.), and 10% EtOH (Decon Laboratories, King of Prussia, Pa.).
Efficacy studies in mice: Selected compounds were tested for in vivo efficacy in the neutropenic S. aureus thigh infection model (9). Mice were immunosuppressed with cyclophosphamide then infected in a thigh with 5×10^5 S. aureus (ATCC 29213). Compounds were dosed orally with 75 mg/kg at 2 and 12 h post-infection. At 24 h, thighs were harvested for CFU counts.

Data set [7] relates to T. cruzi. The experiment in a line: T. cruzi growth inhibition. Particulars: read-out: (E) T. cruzi EC50. It is filed as cell-based, Trypanosoma cruzi.
Data set [8] has as its system C. parvum. The experiment in a line: C. parvum growth inhibition. Particulars: read-out: (J) C. parvum EC50. It is filed as cell-based, Cryptosporidium parvum.

Each structure is given as a SMILES string. In brackets after ≈: the same amount, converted by molar mass. Several values for one entry are separate records, joined by “and”; a condition that tells them apart may be missing. Identical values can stand only once. Like-named read-outs stand apart in the source and are kept apart here. Where only a bound is given, the exact number is not on record here.

Broadly, the MIC is the least concentration at which growth counts as inhibited. `Fc1ccc2nc(NCCCNCc3cc(Cl)cc(Cl)c3)[nH]c2n1` [Compound 1614, [(3,5-dichlorophenyl)methyl][3-({5-fluoro-3H-imidazo[4,5-b]pyridin-2-yl}amino)propyl]amine]: the minimum inhibitory concentration (MIC) in data set [1] is 5 µg/mL (≈ 13.6 µM); in data set [2], 10 µg/mL (≈ 27.2 µM); in data set [3], 2.5 µg/mL (≈ 6.79 µM); in data set [4] it was greater than 10 µg/mL.
Usually Cmax stands for the highest concentration seen after dosing. As to `Fc1ccc2nc(NCCCN[C@@H]3CCNc4c(Cl)cc(Cl)cc43)[nH]c2n1` [Compound 1717, (4R)-6,8-dichloro—N-[3-({5-fluoro-3H-imidazo[4,5-b]pyridin-2-yl}amino)propyl]-1,2,3,4-tetrahydroquinolin-4-amine, reference compound], the MIC in data set [1] was 0.156 µg/mL (≈ 0.381 µM); in data set [2], 0.156 µg/mL (≈ 0.381 µM); in data set [3], 0.078 µg/mL (≈ 0.191 µM); in data set [4], greater than 20 µg/mL. Besides, the Cmax in data set [5] was roughly 1500 ng/mL. Also, the AUC(0-t) in data set [5] is 15700 ng·h/mL. For the same compound, in data set [6], the “efficacy in thigh infection model” value is on record as “significant reduction of bacterial load below the stasis level”. The “reduction of bacterial load below stasis level” value in data set [6] is recorded as “approximately 2 log”.
What is called EC50 is the concentration giving half of the maximal effect. As to `CCn1c(Cc2ccc(Cl)cc2Cl)cn(Cc2nc3nc(F)ccc3[nH]2)c1=O` [Compound 2062, 4-[(2,4-dichlorophenyl)methyl]-3-ethyl-1-({5-fluoro-1H-imidazo[4,5-b]pyridin-2-yl}methyl)-2,3-dihydro-1H-imidazol-2-one], the EC50 in data set [7] (Trypanosoma cruzi) is 85.2 nM; in data set [7], 98.9 nM and 90.8 nM.
`CCn1c(Cc2ccc(OC)cc2Cl)cn(Cc2nc3nc(Cl)ccc3[nH]2)c1=O` [Compound 2093, 1-({5-chloro-1H-imidazo[4,5-b]pyridin-2-yl}methyl)-4-[(2-chloro-4-methoxyphenyl)methyl]-3-ethyl-2,3-dihydro-1H-imidazol-2-one]: the minimal inhibitory concentration (MIC) in data set [1] was 0.313 µg/mL (≈ 0.724 µM); in data set [2], 0.313 µg/mL (≈ 0.724 µM); in data set [3], 0.313 µg/mL (≈ 0.724 µM); in data set [4] it was greater than 20 µg/mL. In addition, in data set [5], the Cmax was 7570 ± 2290 ng/mL. Further, the AUC(0-t) in data set [5] was 20400 ng·h/mL. Besides, the “efficacy in thigh infection model” value in data set [6] was “weaker activity than the other MetRS inhibitors evaluated”. Moreover, the half-maximal effective concentration (EC50) came to 38 nM in data set [8] (Cryptosporidium parvum), 33 nM in data set [8], 8.28 nM in data set [7] (Trypanosoma cruzi) and 5.81 nM in data set [7].
For the compound `CCn1c(Cc2ccc(OC)cc2Cl)cn(Cc2nc3nc(F)ccc3[nH]2)c1=O` [Compound 2114, 4-[(2-chloro-4-methoxyphenyl)methyl]-3-ethyl-1-({5-fluoro-1H-imidazo[4,5-b]pyridin-2-yl}methyl)-2,3-dihydro-1H-imidazol-2-one], in data set [5], the Cmax was determined as 5450 ± 750 ng/mL. In addition, the AUC(0-t) in data set [5] was 15000 ng·h/mL. For the same compound, the EC50 in data set [8] (Cryptosporidium parvum) stood at 53 nM; in data set [7] (Trypanosoma cruzi), 25.9 nM; in data set [7] it was 23.2 nM.
Consider `COc1cc(Cl)c(-c2cccc3nc(Cc4nc5nc(Cl)ccc5[nH]4)cn23)cc1OC` [Compound 2144, 2-({5-chloro-1H-imidazo[4,5-b]pyridin-2-yl}methyl)-5-(2-chloro-4,5-dimethoxyphenyl)imidazo[1,2-a]pyridine], for which the minimal inhibitory concentration (MIC) in data set [1] was 0.039 µg/mL (≈ 0.0858 µM); in data set [2] it was 0.039 µg/mL (≈ 0.0858 µM); in data set [3] it was 0.078 µg/mL (≈ 0.172 µM); in data set [4] it was greater than 20 µg/mL. The “Mouse Oral PK DBS: Average Cmax” value in data set [5] was 8.95 ± 1.38 µg/mL. In data set [5], the highest concentration (Cmax) is roughly 9000 ng/mL. Besides, the AUC(0-t) in data set [5] was 63200 ng·h/mL. The “efficacy in thigh infection model” value in data set [6] is reported as “significant reduction of bacterial load below the stasis level”. In data set [6], the “reduction of bacterial load below stasis level” value is given as “approximately 2 log”. Also, the half-maximal effective concentration (EC50) in data set [8] (Cryptosporidium parvum) is greater than 2000 nM; in data set [7] (Trypanosoma cruzi), 13.5 nM; in data set [7], 7.79 nM.
In the case of `CC(=O)NC[C@H]1CN(c2ccc(N3CCOCC3)c(F)c2)C(=O)O1` [LNZ, linezolid], the MIC in data set [1] came out at 2.5 µg/mL (≈ 7.41 µM); in data set [2], 1.25 µg/mL (≈ 3.71 µM); in data set [3] it was 1.25 µg/mL (≈ 3.71 µM); in data set [4], 1.25 µg/mL (≈ 3.71 µM). In addition, the peak concentration (Cmax) in data set [5] came to 26500 ± 15200 ng/mL. In data set [5], the AUC(0-t) was 94400 ng·h/mL.

For the origin of these results see patent US11584744B2 (UNIVERSITY OF WASHINGTON, priority 2017, dated 2023).
